Source: US20120130146A1, “CONTINUOUS ADMINISTRATION OF CILENGITIDE IN CANCER TREATMENTS” (Merck Patent GmbH, priority 2009, published 2012)
Several values for one entry are separate records, joined by “and”; a condition that tells them apart may be missing. Equal entries are not always repeated. Where two headings read alike, the source gives them in different places.

Assay: Continuous infusion study pharmacokinetics (plasma)
Assay type: in vivo, human
Conditions: for dose proportionality of steady-state concentration (Css): continuous infusion 1-12 mg/h; for level at 2 h / level at 168 h / level at 170 h / level at 336 h / level at 338 h / level at 504 h / level at 506 h: iv
Method: Patients with solid tumors received a continuous infusion of 1 mg/h, 2 mg/h, 4 mg/h, 8 mg/h or 12 mg/h. with a weekly change of infusion bag.
Blood samples were taken on Day 1 (first dose) at pre-dose and 2 h after start of infusion and then weekly just before change of infusion bag and 2 hours thereafter for the first 4 weeks.
The following pharmacokinetic parameters were derived at Merck KGaA. Darmstadt, Germany, by mathematical methods using Kinetica Version 4.1.1.
CL the total body clearance of EMD 121974 from plasma Css plasma concentration at steady state ke elimination rate constant Rate infusion rate t1/2, half life V Volume of distribution
Css, the plasma concentration at steady state, has been estimated by the arithmetic mean of all concentration values from time point 168 h to 506 h per patient.
From Css and t1/2 the PK parameters CL, ke and V were calculated as follows: […]

[1] = Rate 12 mg/h, Mean, t1/2 = 4 hours
[2] = human, plasma, 1 mg/h, Rate 1 mg/h, Mean, read-out: EMD 121974 Concentrations, Mean
[3] = human, plasma, 2 mg/h, Rate 2 mg/h, Mean, read-out: EMD 121974 Concentrations, Mean
[4] = human, plasma, 4 mg/h, Rate 4 mg/h, Mean, read-out: EMD 121974 Concentrations, Mean
[5] = human, plasma, 8 mg/h, Rate 8 mg/h, Mean, read-out: EMD 121974 Concentrations, Mean
[6] = human, plasma, 12 mg/h, Rate 12 mg/h, Mean, read-out: EMD 121974 Concentrations, Mean

## CC(C)[C@H]1C(=O)N[C@@H](CCCN=C(N)N)C(=O)NCC(=O)N[C@@H](CC(=O)O)C(=O)N[C@H](Cc2ccccc2)C(=O)N1C [Cilengitide, cyclo-(Arg-Gly-Asp-DPhe-NMeVal)]
Rate 12 mg/h, 336 h, individual subjects, listed as EMD 121974
  EMD 121974 Concentrations: 4280.00 ng/mL and 1250.00 ng/mL and 1790.00 ng/mL
Rate 12 mg/h, 338 h, individual subjects, listed as EMD 121974
  EMD 121974 Concentrations: 1780.00 ng/mL and 1610.00 ng/mL and 1620.00 ng/mL
Rate 12 mg/h, 504 h, individual subjects, listed as EMD 121974
  EMD 121974 Concentrations: 2220.00 ng/mL and 989.00 ng/mL and 2050.00 ng/mL
Rate 12 mg/h, 506 h, individual subjects, listed as EMD 121974
  EMD 121974 Concentrations: 1550.00 ng/mL and 1230.00 ng/mL and 1880.00 ng/mL
Rate 12 mg/h, CL=Rate/Css, individual subjects, listed as EMD 121974
  CL: 7.66 L/h and 6.75 L/h
[1]
  V, Mean: 39.5 L
  ke, Mean: 0.173 h⁻¹
Rate 12 mg/h, V=CL/ke, t1/2 = 4 hours, individual subjects, listed as EMD 121974
  V: 35.4 L and 44.2 L and 39.0 L
Rate 12 mg/h, for t1/2 = 4 hours, individual subjects
  ke: 0.173 h⁻¹
Rate 12 mg/h, mean of 168 h to 506 h values per patient, individual subjects, listed as EMD 121974
  Css: 1956.2 ng/mL and 1566.5 ng/mL and 1776.7 ng/mL
Assuming a half-life of 4 hours
  time to reach steady state conditions: ≤ 24 h
Listed as EMD
  dose proportionality of steady-state concentration (Css): increased proportionally to dose
Listed as EMD 121974
  dose proportionality of steady-state concentration (Css): increase proportional to dose
human, plasma, intravenous, 1 mg/h, Rate 1 mg/h, Mean, read-out: CL, Mean (converted)
  clearance: 139 mL/min
human, plasma, intravenous, 2 mg/h, Rate 2 mg/h, CL=Rate/Css, individual subjects, read-out: CL (converted)
  clearance: 115 mL/min
human, plasma, intravenous, 2 mg/h, Rate 2 mg/h, Mean, read-out: CL, Mean (converted)
  clearance: 95.3 mL/min
human, plasma, intravenous, 4 mg/h, Rate 4 mg/h, CL=Rate/Css, individual subjects, read-out: CL (converted)
  clearance: 107 mL/min
human, plasma, intravenous, 4 mg/h, Rate 4 mg/h, Mean, read-out: CL, Mean (converted)
  clearance: 109 mL/min
human, plasma, intravenous, 8 mg/h, Rate 8 mg/h, Mean, read-out: CL, Mean (converted)
  clearance: 112 mL/min
human, plasma, intravenous, 12 mg/h, Rate 12 mg/h, CL=Rate/Css, individual subjects, read-out: CL (converted)
  clearance: 102 mL/min
human, plasma, intravenous, 12 mg/h, Rate 12 mg/h, Mean, read-out: CL, Mean (converted)
  clearance: 114 mL/min
human, plasma, intravenous, range of dose-group means, 1-12 mg/h, read-out: mean clearance
  clearance: 95.3 to 139 mL/min
human, plasma, intravenous, range of dose-group means, 1-12 mg/h, t1/2 = 4 hours assumed, read-out: Mean volume of distribution
  Vd: 33 to 48 L
[2]
  level at 2 h: 39.1 ng/mL
  level at 168 h: 156 ng/mL
  level at 170 h: 66.6 ng/mL
human, plasma, 1 mg/h, Rate 1 mg/h, 336 h, Mean, read-out: EMD 121974 Concentrations, Mean
  level at 336 h: 209 ng/mL
human, plasma, 1 mg/h, Rate 1 mg/h, 338 h, Mean, read-out: EMD 121974 Concentrations, Mean
  level at 338 h: 191 ng/mL
human, plasma, 1 mg/h, Rate 1 mg/h, 504 h, Mean, read-out: EMD 121974 Concentrations, Mean
  level at 504 h: 62.1 ng/mL
human, plasma, 1 mg/h, Rate 1 mg/h, 504 h, individual subjects, read-out: EMD 121974 Concentrations
  level at 504 h: 62.1 ng/mL
human, plasma, 1 mg/h, Rate 1 mg/h, 506 h, Mean, read-out: EMD 121974 Concentrations, Mean
  level at 506 h: 109 ng/mL
human, plasma, 1 mg/h, Rate 1 mg/h, 506 h, individual subjects, read-out: EMD 121974 Concentrations
  level at 506 h: 94.4 ng/mL
[3]
  level at 2 h: 162 ng/mL
  level at 168 h: 344 ng/mL
  level at 170 h: 280 ng/mL
human, plasma, 2 mg/h, Rate 2 mg/h, 336 h, Mean, read-out: EMD 121974 Concentrations, Mean
  level at 336 h: 495 ng/mL
human, plasma, 2 mg/h, Rate 2 mg/h, 338 h, Mean, read-out: EMD 121974 Concentrations, Mean
  level at 338 h: 360 ng/mL
human, plasma, 2 mg/h, Rate 2 mg/h, 504 h, Mean, read-out: EMD 121974 Concentrations, Mean
  level at 504 h: 376 ng/mL
human, plasma, 2 mg/h, Rate 2 mg/h, 506 h, Mean, read-out: EMD 121974 Concentrations, Mean
  level at 506 h: 337 ng/mL
[4]
  level at 2 h: 328 ng/mL
  level at 168 h: 626 ng/mL
  level at 170 h: 516 ng/mL
human, plasma, 4 mg/h, Rate 4 mg/h, 336 h, Mean, read-out: EMD 121974 Concentrations, Mean
  level at 336 h: 726 ng/mL
human, plasma, 4 mg/h, Rate 4 mg/h, 338 h, Mean, read-out: EMD 121974 Concentrations, Mean
  level at 338 h: 559 ng/mL
human, plasma, 4 mg/h, Rate 4 mg/h, 504 h, Mean, read-out: EMD 121974 Concentrations, Mean
  level at 504 h: 665 ng/mL
human, plasma, 4 mg/h, Rate 4 mg/h, 506 h, Mean, read-out: EMD 121974 Concentrations, Mean
  level at 506 h: 681 ng/mL
[5]
  level at 2 h: 503 ng/mL
  level at 168 h: 1460 ng/mL
  level at 170 h: 1210 ng/mL
human, plasma, 8 mg/h, Rate 8 mg/h, 336 h, Mean, read-out: EMD 121974 Concentrations, Mean
  level at 336 h: 525 ng/mL
human, plasma, 8 mg/h, Rate 8 mg/h, 338 h, Mean, read-out: EMD 121974 Concentrations, Mean
  level at 338 h: 972 ng/mL
human, plasma, 8 mg/h, Rate 8 mg/h, 504 h, Mean, read-out: EMD 121974 Concentrations, Mean
  level at 504 h: 1630 ng/mL
human, plasma, 8 mg/h, Rate 8 mg/h, 506 h, Mean, read-out: EMD 121974 Concentrations, Mean
  level at 506 h: 1290 ng/mL
[6]
  level at 2 h: 499 ng/mL
  level at 168 h: 1770 ng/mL
  level at 170 h: 1410 ng/mL
human, plasma, 12 mg/h, Rate 12 mg/h, 336 h, Mean, read-out: EMD 121974 Concentrations, Mean
  level at 336 h: 2440 ng/mL
human, plasma, 12 mg/h, Rate 12 mg/h, 338 h, Mean, read-out: EMD 121974 Concentrations, Mean
  level at 338 h: 1670 ng/mL
human, plasma, 12 mg/h, Rate 12 mg/h, 504 h, Mean, read-out: EMD 121974 Concentrations, Mean
  level at 504 h: 1750 ng/mL
human, plasma, 12 mg/h, Rate 12 mg/h, 506 h, Mean, read-out: EMD 121974 Concentrations, Mean
  level at 506 h: 1550 ng/mL
